Test results taken from the supplement of paper PMC10307832.

compound: CO[C@@H]1[C@H](N(C)C(=O)c2ccccc2)C[C@H]2O[C@]1(C)n1c3ccccc3c3c4c(c5c6ccccc6n2c5c31)C(=O)NC4 [Midostaurin] + CS(=O)(=O)CCNCc1ccc(-c2ccc3ncnc(Nc4ccc(OCc5cccc(F)c5)c(Cl)c4)c3c2)o1 [Lapatinib] (partner 2 µM); assay: relative viability (nuclei count vs DMSO), 5 days (fraction); higher = more cells survive; details: first compound 0.01 µM
Method in brief: (§1)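 One day after seeding in 1536-well plates, lung cancer cell lines were dosed by pin tool. Dosing was either single-drug or a fixed anchor-drug dose plus five library-drug doses (not always all listed) in √10 steps. After 5 days, nuclei were stained in one fix-and-stain step and counted on 4× images, and relative viability is the nuclei count of treated wells over that of vehicle wells, given as the median of duplicate plates.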

Compared with NCI-H2405, HOP-62 is lower in relative viability: 1.03 for the first, 1.02 for the second.

First: HCC-44
Second: LU99A
The relative viability of the first is higher: 1.01 for the first, 0.983 for the second.

First: BEN
Second: HARA
The relative viability of the first is higher: 0.718 for the first, 0.641 for the second.

Compared with HCC-78, NCI-H322M is lower in relative viability: 0.805 for the first, 0.621 for the second.

Going from LCLC-97TM1 to NCI-H2009, the relative viability rises from 0.73 to 0.811.

Going from A-427 to NCI-H661, the relative viability falls from 0.95 to 0.389.

Compared with NCI-H1734, NCI-H460 is lower in relative viability: 1.01 for the first, 0.839 for the second.

Compared with NCI-H2347, SK-LU-1 is lower in relative viability: 0.883 for the first, 0.806 for the second.

Going from 201T to NCI-H1915, the relative viability falls from 1.06 to 0.865.

Going from HCC-827 to LXF-289, the relative viability rises from 0.198 to 0.92.

Going from NCI-H23 to NCI-H647, the relative viability falls from 1.05 to 0.932.

Going from CAL-12T to NCI-H1651, the relative viability rises from 0.726 to 0.74.

Compared with EPLC-272H, NCI-H2228 is higher in relative viability: 0.918 for the first, 0.966 for the second.

Going from NCI-H1792 to NCI-H1355, the relative viability rises from 0.932 to 0.979.

Going from NCI-H3122 to NCI-H1437, the relative viability falls from 0.981 to 0.808.

Cell Line NCI-H1755 has a relative viability of 1.03.

same assay, conditions: first compound 0.03162 µM

Going from NCI-H2405 to HOP-62, the relative viability falls from 1.27 to 0.994.

Going from HCC-44 to LU99A, the relative viability rises from 0.985 to 1.04.

Going from BEN to HARA, the relative viability falls from 0.719 to 0.665.

Going from HCC-78 to NCI-H322M, the relative viability falls from 0.697 to 0.465.

Going from NCI-H2009 to A-427, the relative viability rises from 0.823 to 0.993.

Compared with NCI-H661, NCI-H1734 is higher in relative viability: 0.449 for the first, 1.1 for the second.

First: NCI-H460
Second: NCI-H2347
The relative viability of the first is higher: 1.03 for the first, 0.863 for the second.

First: SK-LU-1
Second: 201T
The relative viability of the first is higher: 1.17 for the first, 0.982 for the second.

Compared with NCI-H1915, HCC-827 is lower in relative viability: 0.972 for the first, 0.225 for the second.

Going from LXF-289 to NCI-H23, the relative viability rises from 0.888 to 1.

Compared with NCI-H647, CAL-12T is lower in relative viability: 1.12 for the first, 0.447 for the second.

Compared with NCI-H1651, EPLC-272H is lower in relative viability: 0.931 for the first, 0.867 for the second.

Going from NCI-H2228 to NCI-H1792, the relative viability falls from 1.07 to 0.875.

First: NCI-H1355
Second: NCI-H3122
The relative viability of the first is lower: 0.959 for the first, 1.02 for the second.

Going from NCI-H1437 to NCI-H1755, the relative viability rises from 0.848 to 0.976.

same assay, conditions: first compound 0.1 µM

Going from HOP-62 to HCC-44, the relative viability falls from 1.14 to 1.04.

First: LU99A
Second: BEN
The relative viability of the first is higher: 1.02 for the first, 0.777 for the second.

First: HARA
Second: HCC-78
The relative viability of the first is lower: 0.522 for the first, 0.721 for the second.

Going from NCI-H322M to LCLC-97TM1, the relative viability rises from 0.627 to 0.846.

First: NCI-H2009
Second: A-427
The relative viability of the first is higher: 0.902 for the first, 0.835 for the second.

Compared with NCI-H661, NCI-H1734 is higher in relative viability: 0.411 for the first, 1.07 for the second.

Compared with NCI-H460, NCI-H2347 is lower in relative viability: 0.971 for the first, 0.956 for the second.

Compared with SK-LU-1, 201T is higher in relative viability: 0.823 for the first, 1.07 for the second.

First: NCI-H1915
Second: HCC-827
The relative viability of the first is higher: 0.956 for the first, 0.204 for the second.

First: LXF-289
Second: NCI-H23
The relative viability of the first is lower: 0.866 for the first, 1 for the second.

First: NCI-H647
Second: CAL-12T
The relative viability of the first is higher: 0.768 for the first, 0.603 for the second.

Going from NCI-H1651 to EPLC-272H, the relative viability falls from 0.787 to 0.75.

Compared with NCI-H2228, NCI-H1792 is lower in relative viability: 1.23 for the first, 0.862 for the second.

Compared with NCI-H1355, NCI-H3122 is lower in relative viability: 1.08 for the first, 0.957 for the second.

Compared with NCI-H1437, NCI-H1755 is higher in relative viability: 0.773 for the first, 0.903 for the second.

same assay, conditions: first compound 0.3162 µM

First: NCI-H2405
Second: HOP-62
The relative viability of the first is higher: 1.11 for the first, 1.06 for the second.

First: HCC-44
Second: LU99A
The relative viability of the first is higher: 1.13 for the first, 0.993 for the second.

First: BEN
Second: HARA
The relative viability of the first is lower: 0.815 for the first, 1.01 for the second.

Going from HCC-78 to NCI-H322M, the relative viability rises from 0.316 to 0.695.

Compared with LCLC-97TM1, NCI-H2009 is lower in relative viability: 1.12 for the first, 0.861 for the second.

Compared with A-427, NCI-H661 is lower in relative viability: 1.1 for the first, 0.384 for the second.

Compared with NCI-H1734, NCI-H460 is lower in relative viability: 1.12 for the first, 0.936 for the second.

First: NCI-H2347
Second: SK-LU-1
The relative viability of the first is higher: 1.11 for the first, 0.572 for the second.

Going from 201T to NCI-H1915, the relative viability falls from 1.08 to 1.04.

Going from HCC-827 to LXF-289, the relative viability rises from 0.225 to 0.951.

First: NCI-H23
Second: NCI-H647
The relative viability of the first is higher: 0.949 for the first, 0.646 for the second.

Compared with CAL-12T, NCI-H1651 is higher in relative viability: 0.498 for the first, 1.05 for the second.

Compared with EPLC-272H, NCI-H2228 is higher in relative viability: 0.855 for the first, 0.972 for the second.

First: NCI-H1792
Second: NCI-H1355
The relative viability of the first is lower: 0.91 for the first, 1.09 for the second.

Going from NCI-H3122 to NCI-H1437, the relative viability falls from 1.02 to 0.882.

In the case of NCI-H1755, the relative viability is reported as 0.917.

compound: COc1cc(-c2nn([C@H]3CC[C@H](N4CCN(C(C)=O)CC4)CC3)c3ncnc(N)c23)ccc1NC(=O)c1cc2ccccc2n1C + N=C(N)NC(=N)NCCc1ccccc1 [Phenformin] (partner 250 µM); assay: as above; details: first compound 0.0128 µM
Method in brief: as §1

Going from NCI-H2405 to HOP-62, the relative viability rises from 0.408 to 0.712.

First: HCC-44
Second: LU99A
The relative viability of the first is lower: 0.367 for the first, 0.938 for the second.

First: BEN
Second: HARA
The relative viability of the first is lower: 0.235 for the first, 0.426 for the second.

First: HCC-78
Second: NCI-H322M
The relative viability of the first is lower: 0.734 for the first, 0.815 for the second.

Compared with LCLC-97TM1, NCI-H2009 is higher in relative viability: 0.501 for the first, 0.517 for the second.

Compared with A-427, NCI-H661 is lower in relative viability: 0.335 for the first, 0.271 for the second.

Going from NCI-H1734 to NCI-H460, the relative viability rises from 0.331 to 0.551.

Going from NCI-H2347 to SK-LU-1, the relative viability rises from 0.51 to 0.588.

Going from 201T to NCI-H1915, the relative viability falls from 0.448 to 0.387.

Compared with HCC-827, LXF-289 is higher in relative viability: 0.384 for the first, 0.545 for the second.

First: NCI-H23
Second: NCI-H647
The relative viability of the first is higher: 0.765 for the first, 0.526 for the second.

First: CAL-12T
Second: NCI-H1651
The relative viability of the first is higher: 0.588 for the first, 0.352 for the second.

Compared with EPLC-272H, NCI-H2228 is lower in relative viability: 0.46 for the first, 0.278 for the second.

Compared with NCI-H1792, NCI-H1355 is higher in relative viability: 0.263 for the first, 0.476 for the second.

Compared with NCI-H3122, NCI-H1437 is higher in relative viability: 0.397 for the first, 0.429 for the second.

For NCI-H1755, the relative viability was 0.647.
